Entries after “also recorded” stand apart in the source; their conditions may differ.
Assays:
[1] = Stability of curcumin analogs by time-dependent intrinsic fluorescence; assay type: physicochemical; conditions: 20 mM MES buffer pH 6.0, 0.01% NaN3, 37 °C
Experimental: 1μl of this DMSO-stock solution was transferred to 2 ml microfuge tube and 1 ml of 20 mM MES buffer (pH 6.0, 0.01% NaN3) was added to it and mixed immediately by vortexing. These solutions were incubated at 37 °C and their respective fluorescence was taken at certain time intervals. The fluorescence was monitored by placing the 200 μl of the incubated solution in 0.1 cm path-length quartz cuvette (Hellma, Forest Hills, NY) and the spectra were acquired by using FluoroMax-4 spectrofluorometer (HORIBA JobinYvon) instrument with excitation and emission slit widths of 5 nm and 10 nm respectively. The fluorescence intensity maxima for each sample were plotted against time of incubation and fitted in exponential decay 1 in the Origin 8.0 software according to manufacture’s protocol (Fig. 2A).

[2] = target: T1, preformed α-Syn amyloid fibrils (Homo sapiens, UniProt P37840); assay: MTT assay of preformed α-Syn fibrils incubated with curcumin analogs; assay type: cell-based; conditions: fibrils incubated with analog 48 h at 37 °C; SH-SY5Y cells
T1 construct: made in house; host or cells: Escherichia coli BL21
Experimental: The concentration of the fibrils was determined by subtraction of supernatant concentration from the original concentration of α-Syn kept for fibrillation.

[3] = target: T2, preformed α-Syn fibrils (Homo sapiens, UniProt P37840); assay: Calcein-AM/EthD-1 staining, preformed α-Syn fibrils with analogs; assay type: cell-based; conditions: SH-SY5Y cells
T2 construct: made in house; host or cells: Escherichia coli BL21
Experimental: Previously it has been shown that curcumin decreases the toxicity of α-Syn amyloid fibrils by reducing the exposed hydrophobic surfaces. To delineate whether curcumin analogs can decrease the toxicity of preformed α-Syn fibrils, we performed cell viability assay. For this, 10-days incubated α-Syn solution was centrifuged (fibril formation was confirmed by electron microscopy (EM)) and the pelleted fibrils were then re-dissolved in same volume of 20 mM MES buffer (pH 6.0, 0.01% NaN3). The concentration of the fibrils was determined by subtraction of supernatant concentration from the original concentration of α-Syn kept for fibrillation. […] After incubation, we measured the effect of curcumin analogs on the toxicity of preformed α-Syn amyloid fibrils by MTT reduction assay on SH-SY5Y cells. […]
(§1) For this assay, SH-SY5Y cells were seeded in 96 well plate and incubated with identical concentrations of oligomers/fibrils (as used in MTT assay) in absence and presence of curcumin and its analogs for 36 h in 5% CO2 incubator at 37 °C. […] Calcein-AM/Ethidium homodimer-1 signal was then checked and imaged with an inverted fluorescence microscope (Leica DMi8). […] The free calcein emits strong fluorescence signal at ~535 nm, which could be easily observed in the green channel of a microscope. […]

[4] = target: T1, preformed α-Syn amyloid fibrils; assay: TEM of preformed α-Syn fibrils with analogs; assay type: biochemical; conditions: after 48 h incubation with analog
Experimental: (§2) The samples were then washed thrice with autoclaved MQ. The samples were then stained with 10 μl of uranyl formate 1% (w/v) and incubated in dark for 10 min. The EM image of each sample was acquired at 120 kV with magnifications in the range of 26,000X and 43,000X using a transmission electron microscope (TECNAI12 D312 FEI, Netherlands).

[5] = target: T3, α-Syn oligomers (Homo sapiens, UniProt P37840); assay: Calcein-AM/EthD-1 staining, α-Syn oligomers with C1/C6; assay type: cell-based; conditions: SH-SY5Y cells
T3 construct: made in house; host or cells: Escherichia coli BL21
From the text: It has been shown that α-Syn mutants that form oligomers preferentially are more toxic and kill dopaminergic neurons in animal models as compared to fibril forming mutants. Therefore, compounds that effectively reduce the toxicity of oligomers could be beneficial for the treatment of PD. In the present study, we tested the effect of curcumin and its analogs on the toxicity, hydrophobic exposure and morphology of α-Syn oligomers isolated using size exclusion chromatography (SEC). The toxicity of α-Syn oligomers in presence and absence of curcumin/analogs were initially tested using MTT assay. […] As previously it has been proposed that curcumin reduces the oligomers toxicity by altering their exposed hydrophobic surface, we also measured the hydrophobic surface exposure of preformed α-Syn oligomers incubated with curcumin and its analogs.
as §1

[6] = target: T3, α-Syn oligomers; assay: Binding affinity to α-Syn oligomers by curcumin analog fluorescence; conditions: compound fluorescence; read-out: dissociation constant (Kd) for α-Syn oligomers
Experimental: Immediately after incubation, fluorescence study was performed (for the excitation and emission ranges for each compounds, see Fig. S1). Experiments were performed using FluoroMax-4 spectrofluorometer (HORIBA JobinYvon) with excitation and emission slit widths of 5 nm.
The data were analyzed in Graphpad Prism software according to established method as used previously.

[7] = target: T4, α-Syn (Homo sapiens, UniProt P37840); assay: α-Syn aggregation kinetics by compound fluorescence; assay type: biochemical; conditions: in presence of analog
T4 construct: made in house; host or cells: Escherichia coli BL21
Experimental: ThT fluorescence was used to monitor the aggregation kinetics of α-Syn only as a control.
(§3) Subsequently, we examined the effect of these analogs on α-Syn oligomerization by time dependent static light scattering experiment. […] After aggregation, TEM study was done to determine the effects of these analogs on the morphology of the resultant aggregates.
The α-Syn amyloid aggregation was started with LMW α-Syn of concentration ~300 μM in 1.5 ml microfuge tube in 20 mM MES buffer, pH 6.0, with 0.01% NaN3. […] The microfuge tubes with protein solutions were placed into Echo-Therm model RT11 vertical rotor (Torrey Pines Scientific, USA) with a speed of 50 rpm, at 37 °C inside an incubator.
The experiments were performed in FluoroMax-4 spectrofluorometer (HORIBA JobinYvon) with excitation and emission slit widths of 5 nm. Fluorescence was done in 20 mM MES buffer (pH 6.0, 0.01% NaN3).

[8] = target: T4, α-Syn; assay: TEM of α-Syn aggregates formed in presence of analogs; assay type: biochemical
Experimental: as §3, §2

relative stability compared with curcumin (slope of normalized fluorescence versus time) [1]: relatively more stable than curcumin
Calcein-AM/EthD-1 staining with preformed α-Syn fibrils [3]: less nuclear staining by EthD-1
fibril morphology/thickness of preformed α-Syn fibrils (TEM, words) [4]: clustering was more
ethidium homodimer staining with α-Syn oligomers [5]: less ethidium homodimer staining
Kd [6]: 16.1 ± 3.81 µM
lag time of α-Syn aggregation ([7]; compound fluorescence, MES pH 6.0): 3.5 ± 0.5 h
SMILES: COc1cc(/C=C/C(=O)CC(=O)/C=C/c2ccc(OCc3ccccc3)c(OC)c2)ccc1OCc1ccccc1 [C6]
cell viability, MTT, preformed α-Syn fibrils incubated with analog [2]: 92.9%
effect on toxicity of preformed α-Syn fibrils, MTT [2]: reduction in toxicity
effect on rate/kinetics of α-Syn aggregation [7]: fastest; also recorded: significantly accelerated α-Syn aggregation kinetics
average fibril thickness of fibrils formed in presence of analog [8]: more in comparison to fibrils formed in presence of other analogs
